Patent US12319675B2 (Artax Biopharma Inc., priority 2018, dated 2025)
Like-named read-outs stand apart in the source and are kept apart here.

Key:
[1] = target: Nck SH3 domain interaction with the proline rich sequence of TCR subunit CD3ε (Homo sapiens, UniProt P16333); assay: Competitive binding, biosensor with Interferometric Optical Detection Method (IODM); conditions: ratio of 1:1 between Nck SH3 domain and inhibitors; biotinylated CD3ε peptide on sensing surface
Procedure: Inhibition of Nck SH3 domain interaction with the proline rich sequence of TCR subunit CD3ε was measured by optical read-out of a biosensor based on the Interferometric Optical Detection Method (IODM), using established methods (WO 2010/026269; WO 2014/020159; Laguna, M. et al., Sensors, 2015, 15(8):19819-29; and Holgado, M. et al., Sensors, 2014, 14(2): 3675-89).
Briefly, a Biophotonic Cell (BICELL) based on Fabry-Perot interferometers was used as the photonic transducer. The BICELL was fabricated using SU8 in cyclopentanone according to known methods (e.g., Laguna, M. F. et al., Sensors, 2014, 14(4): 6695-6700). Cured film was then treated with 95% sulfuric acid for 10 seconds. Streptavidin was then immobilized on the sensing surface in phosphate buffered saline (PBS; pH 7.4) over 20 min at 37° C. followed by blocking of the surface with 5% skin milk in PBS (pH 7.4). Biotinylated CD3ε peptide (SEQ ID NO: 001) in PBS (pH 7.4) was incubated with the streptavidin coated film to biofunctionalize the sensing surface (20 min at 37° C.).
Competitive binding assays were performed to determine the affinity reaction of inhibitors. The screening was carried out using a ratio of 1:1 between Nck SH3 domain and inhibitors. The optical readout of the biosensor was accomplished by a Fourier transform visible-infrared (FT-VIS-IR) spectrometer. Competitive binding results are shown in Table 3 for selected compounds of the invention. The compound numbers correspond to the compound numbers in Table 1. Compounds having a designation of “A” provide an Increased Relative Optical Power (ΔIROP) of less than or equal to thirty percent (≤30%); compounds having a designation of “B” provide a ΔIROP of between thirty and fifty percent (>30% to ≤50%); compounds having a designation of “C” provide an ΔIROP of between fifty and seventy percent (>50% to ≤70%); and compounds having a designation of “D” provide a ΔIROP of greater than seventy percent (>70%).

[2] = system: CD3 mediated phosphorylation of ZAP70 in Jurkat cells; assay: CD3 mediated phosphorylation of ZAP70 in Jurkat cells (HTRF); assay type: cell-based; conditions: Jurkat cells stimulated with 20 μg/mL anti-CD3 antibody; for Emax: read-out: pZAP70 Inhibition - Maximum Percent Inhibition (% Inhibition); for IC50: read-out: pZAP70 Inhibition IC50
Procedure: Inhibition of CD3 mediated phosphorylation of ZAP70 in Jurkat cells was measured by a cellular based Homogeneous Time-Resolved Fluorescence (HTRF) assay utilizing a Total ZAP-70 HTRF kit.
Briefly, Jurkat cells (˜1.3×10^6 cells/mL) were harvested on the day of experimentation. Cells were washed with PBS and resuspended in Assay Buffer (RPMI 1640 media plus 10% FBS) and counted.
Jurkat cells were seeded in Assay media at a total volume of 4 μL/well (40K cells/well) in a 384-low volume white flat bottom plate. The cells were then incubated at 37° C./5% CO2 for 30 minutes. The cells were then treated in duplicate with test compounds (3×) and reference compounds (3×) in a total volume of 4 μL, respectively. A compound dilution scheme is exemplified in FIG. 1.
The plate was then transferred to an incubator maintained at 37° C./5% CO2 for 2 minutes. Following incubation, cells were stimulated with 20 μg/mL of anti-CD3 antibody (1 mg/mL stock) and assay media was used to bring the total well volume 4 μL/well. The plate was then transferred to the incubator maintained at 37° C./5% CO2 for 2.5 minutes. Following incubation, 4 μL of lysis buffer (4×) provided in the kit was added to each well. The plate was then incubated at RT for 1 hour with gentle shaking. Following incubation, 4 μL of detection mix was added to each well and the plate was sealed with a plate sealer and left overnight at RT in the dark.
The Envision reader was set-up for Eu^3+ cryptate and fluorescence emission was read at two different wavelengths (620 nm and 665 nm). • Excitation filter: UV2(TRF) 320 nm • Emission filter: 665 nm • 2nd Emission filter: Europium 615 nm • Measurement height (mm): 6.5 • Excitation light (%): 100 • Delay (μs): 50 • Window time (μs): 400 • Time between flashes (μs): 2000 • Number of flashes: 100 • Number of flashes for 2nd detector: 100
The data is represented by the signal form the two wavelengths:
The ratio of the signal is calculated for each individual well:
The data was plotted using Graph Pad Prism. The significance between untreated vs. treated groups was assessed by One-way ANOVA and Bonferroni posttest comparing all columns in the graph.
ZAP70 IC50 results are shown in Table 6 for select compounds of the invention. The compound numbers correspond to the compound numbers in Table 1. […] “ND” indicates not determined.
ZAP70 percent maximum inhibition results are shown in Table 7 for select compounds of the invention. The compound numbers correspond to the compound numbers in Table 1.

[3] = Microsomal stability assay, rat; assay type: in vitro ADME; conditions: rat microsomes; for half-life: read-out: Microsomal Stability (T1/2 min) Rat
Procedure: (§1) Microsomal stability assays were performed using mouse, rat, and human […] according to methods well-known in the art. Microsomal stability results are shown in Table 2 for selected compounds of the invention. The compound numbers correspond to the compound numbers in Table 1. […] “N/A” indicates not assayed.

[4] = Microsomal stability assay, human; assay type: in vitro ADME; conditions: human microsomes; for half-life: read-out: Microsomal Stability (T1/2 min) Human
Procedure: as §1

[5] = Microsomal stability assay, mouse; assay type: in vitro ADME; conditions: mouse microsomes; for half-life: read-out: Microsomal Stability (T1/2 min) Mouse
Procedure: as §1

[6] = Homo sapiens, maximum inhibition

| Compound | ΔIROP (Increased Relative Optical Power) [1] | Emax [2, 6] [%] | IC50 ([2]; Homo sapiens) [nM] | half-life [3] [min] | half-life [4] [min] | half-life [5] [min] | pZAP70 Inhibition - Maximum Percent Inhibition (% Inhibition) ([2]; maximum inhibition) | IC50 [2] [nM] | Microsomal Stability (T1/2 min) Rat ([3]; half-life) | Microsomal Stability (T1/2 min) Human ([4]; half-life) | Microsomal Stability (T1/2 min) Mouse ([5]; half-life) |
| --- | --- | --- | --- | --- | --- | --- | --- | --- | --- | --- | --- |
| CC(C)Oc1ccc2c(c1)C(c1ccc(F)cc1)=C(CN1CCCC1)CO2 [Compound I-14] | C (an ΔIROP of between fifty and seventy percent (>50% to ≤70%)) | 30 to 40 | < 1 | < 10 | 10 to 30 | < 10 |  |  |  |  |  |
| CC(C)c1ccc2c(c1)C(c1ccc(F)cc1)=C(CN1CCCC1)CO2 [Compound I-15] | C (an ΔIROP of between fifty and seventy percent (>50% to ≤70%)) | 30 to 40 | < 1 | < 10 | 10 to 30 | < 10 |  |  |  |  |  |
| CC(C)c1ccc2c(c1)C(c1ccc(F)cc1)=C(C(=O)N1CCN(C)CC1)CO2 [Compound I-24] | C (an ΔIROP of between fifty and seventy percent (>50% to ≤70%)) | 40 to 50 | 1 to 10 | < 10 | < 10 | < 10 |  |  |  |  |  |
| COc1ccc2c(c1)C(c1ccc(C(F)(F)F)cc1)=C(CN1CCCC1)CO2 [Compound I-20] | B (a ΔIROP of between thirty and fifty percent (>30% to ≤50%)) | 40 to 50 | < 1 | < 10 | 10 to 30 | < 10 |  |  |  |  |  |
| O=C(O)CCOc1ccc2c(c1)C(c1ccc(F)cc1)=C(CN1CCCC1)CO2 [Compound I-33, 3-((4-(4-fluorophenyl)-3-(pyrrolidin-1-ylmethyl)-2H-chromen-6-yl)oxy)propanoic Acid] | A (an Increased Relative Optical Power (ΔIROP) of less than or equal to thirty percent (≤30%)) | > 50 | 1 to 10 | > 30 | > 30 | > 30 |  |  |  |  |  |
| O=C(O)CCOc1ccc2c(c1)C(c1ccc(F)cc1)=C(C(=O)N1CCCC1)CO2 [Compound I-40, 3-((4-(4-fluorophenyl)-3-(pyrrolidine-1-carbonyl)-2H-chromen-6-yl)oxy)propanoic acid] | D (a ΔIROP of greater than seventy percent (>70%)) | 30 to 40 | 1 to 10 | > 30 | > 30 | > 30 |  |  |  |  |  |
| COc1ccc2c(c1)C(c1ccc(C#N)cc1)=C(C(=O)N1CCN(C)CC1)CO2 [Compound I-30] | C (an ΔIROP of between fifty and seventy percent (>50% to ≤70%)) | 40 to 50 | 1 to 10 | 10 to 30 | > 30 | < 10 |  |  |  |  |  |
| CN1CCN(C(=O)C2=C(c3ccc(F)cc3)c3cc(OC(F)F)ccc3OC2)CC1 [Compound I-3] | B (a ΔIROP of between thirty and fifty percent (>30% to ≤50%)) | ≤ 30 | < 1 | < 10 | 10 to 30 | < 10 |  |  |  |  |  |
| COc1ccc2c(c1)C(c1cccc(F)c1)=C(CN1CCCC1)CO2 [Compound I-21] | C (an ΔIROP of between fifty and seventy percent (>50% to ≤70%)) | 40 to 50 | 1 to 10 | < 10 | 10 to 30 | < 10 |  |  |  |  |  |
| 4-((4-(4-fluorophenyl)-6-(trifluoromethoxy)-2H-chromen-3-yl)methyl)morpholine [Compound I-16] | B (a ΔIROP of between thirty and fifty percent (>30% to ≤50%)) |  |  |  |  |  | C (a percent maximum inhibition of between forty and greater than thirty percent (40%≥x>30%)) | < 1 | C (a half-life of less than ten (<10) minutes) | A (a half-life of greater than thirty (>30) minutes) | B (a half-life of between ten (10) and thirty (30) minutes) |
| CN1CCN(C(=O)C2=C(c3ccc(F)cc3)c3ccccc3OC2)CC1 [Compound I-44] | D (a ΔIROP of greater than seventy percent (>70%)) | 30 to 40 | 1 to 10 | < 10 | < 10 | < 10 |  |  |  |  |  |
| Fc1ccc(C2=C(c3nc(-c4ccccc4)no3)COc3ccc(OCC4CC4)cc32)cc1 [Compound I-12] | C (an ΔIROP of between fifty and seventy percent (>50% to ≤70%)) | ≤ 30 |  | > 30 | 10 to 30 | > 30 |  |  |  |  |  |
| O=C(C1=C(c2ccc(F)cc2)c2cc(OC(F)F)ccc2OC1)N1CCCC1 [Compound I-1] | C (an ΔIROP of between fifty and seventy percent (>50% to ≤70%)) |  |  | < 10 | < 10 | < 10 |  |  |  |  |  |
| COc1ccc2c(c1)C(c1ccc(Cl)cc1)=C(CN1CCCC1)CO2 [Compound I-19] | C (an ΔIROP of between fifty and seventy percent (>50% to ≤70%)) | > 50 | 1 to 10 | < 10 | 10 to 30 | < 10 |  |  |  |  |  |
| CC(C)Oc1ccc2c(c1)C(c1ccc(F)cc1)=C(C(=O)N1CCN(C)CC1)CO2 [Compound I-23] | A (an Increased Relative Optical Power (ΔIROP) of less than or equal to thirty percent (≤30%)) | > 50 | 1 to 10 | 10 to 30 | 10 to 30 | < 10 |  |  |  |  |  |
| Fc1ccc(C2=C(CN3CCCC3)COc3ccc(C(F)(F)F)cc32)cc1 [Compound I-17, 1-((4-(4-fluorophenyl)-6-(trifluoromethyl)-2H-chromen-3-yl)methyl)pyrrolidine] | C (an ΔIROP of between fifty and seventy percent (>50% to ≤70%)) |  |  | 10 to 30 | > 30 | > 30 |  |  |  |  |  |
| COc1ccc2c(c1)C(c1ccc(C#N)cc1)=C(CN1CCCC1)CO2 [Compound I-22] | B (a ΔIROP of between thirty and fifty percent (>30% to ≤50%)) | ≤ 30 |  | < 10 | 10 to 30 | < 10 |  |  |  |  |  |
